Assay results reported in patent publication US10206394B2, “Herbicidal compounds” (Syngenta Participations AG, priority 2014, dated 2019).
Like-named read-outs stand apart in the source and are kept apart here.

Tests used:
Assay in all cases: Glasshouse assay for herbicidal activity (pre- and post-emergence), percentage phytotoxicity
Type in all cases: in vivo
[1] = tested on: Echinochloa crus-galli (ECHCG); conditions: Echinochloa crus-galli, rate 250 g/ha
Summary of the method: (§1)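 Damage was rated visually as percent phytotoxicity, 100% meaning total kill, 20 days after pre-emergence application (made one day post-sowing) or 15 days after post-emergence application (made about 12 days post-sowing). Plants were grown under 16 h light, 65% humidity, warm species 24/18° C, cool 20/16° C.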

[2] = tested on: Lolium perenne (LOLPE); conditions: Lolium perenne, rate 250 g/ha
Summary of the method: as §1

[3] = tested on: Avena fatua (AVEFA); conditions: Avena fatua, rate 250 g/ha
Summary of the method: as §1

[4] = tested on: Alopecurus myosuroides (ALOMY); conditions: Alopecurus myosuroides, rate 250 g/ha
Summary of the method: as §1

[5] = post-emergence, 360 h, POST-emergence, visual score 15 DAA (100%=total damage, 0%=no damage), read-out: Post-emergence herbicidal activity (percentage phytotoxicity) ECHCG POST
[6] = pre-emergence, 480 h, PRE-emergence, visual score 20 DAA (100%=total damage, 0%=no damage), read-out: Pre-emergence herbicidal activity (percentage phytotoxicity) ECHCG PRE
[7] = post-emergence, 360 h, POST-emergence, visual score 15 DAA (100%=total damage, 0%=no damage), read-out: Post-emergence herbicidal activity (percentage phytotoxicity) LOLPE POST
[8] = pre-emergence, 480 h, PRE-emergence, visual score 20 DAA (100%=total damage, 0%=no damage), read-out: Pre-emergence herbicidal activity (percentage phytotoxicity) LOLPE PRE
[9] = post-emergence, 360 h, POST-emergence, visual score 15 DAA (100%=total damage, 0%=no damage), read-out: Post-emergence herbicidal activity (percentage phytotoxicity) AVEFA POST
[10] = pre-emergence, 480 h, PRE-emergence, visual score 20 DAA (100%=total damage, 0%=no damage), read-out: Pre-emergence herbicidal activity (percentage phytotoxicity) AVEFA PRE
[11] = post-emergence, 360 h, POST-emergence, visual score 15 DAA (100%=total damage, 0%=no damage), read-out: Post-emergence herbicidal activity (percentage phytotoxicity) ALOMY POST
[12] = pre-emergence, 480 h, PRE-emergence, visual score 20 DAA (100%=total damage, 0%=no damage), read-out: Pre-emergence herbicidal activity (percentage phytotoxicity) ALOMY PRE

Structure (SMILES) | pest or weed control at 250 g/ha [1, 5] [%] | pest or weed control at 250 g/ha [1, 6] [%] | pest or weed control at 250 g/ha [2, 7] [%] | pest or weed control at 250 g/ha [2, 8] [%] | pest or weed control at 250 g/ha [3, 9] [%] | pest or weed control at 250 g/ha [3, 10] [%] | pest or weed control at 250 g/ha [4, 11] [%] | pest or weed control at 250 g/ha [4, 12] [%]
C/C=C/c1cc(C)c(C2C(=O)CC(CC(=O)NCc3ccccc3)C2=O)c(CC)c1 (stereo not drawn) [Compound B190] | 100 | 80 | 80 | 70 | 90 | 40 | 70 | 60
C/C=C/c1cc(C)c(C2C(=O)CC(CC(=O)NCc3ccc(C#N)cc3)C2=O)c(CC)c1 (stereo not drawn) [Compound B191] | 100 | 80 | 90 | 70 | 90 | 40 | 50 | 60
C/C=C/c1cc(C)c(C2C(=O)CC(CC(=O)NC(C)C)C2=O)c(CC)c1 (stereo not drawn) [Compound B192] | 100 | 100 | 100 | 100 | 100 | 90 | 100 | 100
C=CCNC(=O)CC1CC(=O)C(c2c(C)cc(/C=C/C)cc2CC)C1=O (stereo not drawn) [Compound B193] | 100 | 100 | 100 | 100 | 100 | 90 | 100 | 100
C/C=C/c1cc(C)c(C2C(=O)CC(CC(=O)N(C)CC)C2=O)c(CC)c1 (stereo not drawn) [Compound B194] | 100 | 90 | 100 | 100 | 100 | 80 | 100 | 100
C#CCN(C)C(=O)CC1CC(=O)C(c2c(C)cc(/C=C/C)cc2CC)C1=O (stereo not drawn) [Compound B195] | 100 | 100 | 100 | 100 | 100 | 80 | 100 | 90
C/C=C/c1cc(C)c(C2C(=O)CC(CC(=O)NCC3CC3)C2=O)c(CC)c1 (stereo not drawn) [Compound B196] | 100 | 100 | 100 | 100 | 100 | 80 | 100 | 100
Cc1cc(-c2ncc(Cl)cc2F)cc(C)c1C1C(=O)CC(CC(=O)NCC2CC2(F)F)C1=O (stereo not drawn) [Compound B197] | 100 | 100 | 100 | 90 | 100 | 90 | 100 | 100
Cc1cc(Br)cc(C)c1C1C(=O)CC(CC(=O)NCC2CC2(F)F)C1=O (stereo not drawn) [Compound B198] | 100 | 80 | 100 | 70 | 100 | 60 | 100 | 90
Cc1cc(-c2ncc(F)cc2F)cc(C)c1C1C(=O)CC(CC(=O)NCc2ccc(C#N)cc2)C1=O (stereo not drawn) [Compound B199] | 100 | 50 | 90 | 70 | 100 | 60 | 100 | 80
C=C(C)CNC(=O)CC1CC(=O)C(c2c(C)cc(-c3ncc(F)cc3F)cc2C)C1=O (stereo not drawn) [Compound B200] | 100 | 100 | 100 | 100 | 100 | 90 | 100 | 100
CCNC(=O)CC1CC(=O)C(c2c(C)cc(-c3ncc(F)cc3F)cc2C)C1=O (stereo not drawn) [Compound B201] | 100 | 100 | 100 | 100 | 100 | 100 | 100 | 100
Cc1cc(-c2ncc(F)cc2F)cc(C)c1C1C(=O)CC(CC(=O)NCc2ccc(C#N)cn2)C1=O (stereo not drawn) [Compound B202] | 90 | 70 | 70 | 60 | 80 | 70 | 90 | 80
Cc1cc(-c2ncc(F)cc2F)cc(C)c1C1C(=O)CC(CC(=O)NC(C)C)C1=O (stereo not drawn) [Compound B203] | 100 | 100 | 100 | 100 | 100 | 100 | 100 | 100
Cc1cc(OCC(F)(F)F)cc(C)c1C1C(=O)CC(CC(=O)NCc2cccc(Cl)c2)C1=O (stereo not drawn) [Compound B204] | 100 | 90 | 90 | 90 | 100 | 80 | 100 | 90
Cc1cc(OCC(F)(F)F)cc(C)c1C1C(=O)CC(CC(=O)NCc2cccc(F)c2)C1=O (stereo not drawn) [Compound B205] | 90 | 90 | 90 | 90 | 90 | 80 | 100 | 100
COc1ccc(CNC(=O)CC2CC(=O)C(c3c(C)cc(OCC(F)(F)F)cc3C)C2=O)cc1 (stereo not drawn) [Compound B206] | 90 | 90 | 90 | 80 | 90 | 70 | 90 | 80
Cc1cc(OCC(F)(F)F)cc(C)c1C1C(=O)CC(CC(=O)NCc2ccc(C#N)cc2)C1=O (stereo not drawn) [Compound B207] | 90 | 40 | 60 | 10 | 50 | 0 | 80 | 40
